Laboratory results taken from patent US7094869B2, “Low molecular weight peptidomimetic growth hormone secretagogues” (Genentech, Inc., priority 1994, dated 2006).

Tested on: ACTH
Experiment: ACTH release from pituitary cells (RIA)
Format: cell-based, rat
Details: 100 nM
Method: Dispersion: Adult female Sprague-Dawley (160-180 g., Charles River) rats were group-caged in a 12:12 light:dark cycle with food and water available ad libitum. Pituitaries from ten rats were removed, the posterior pituitary discarded and the anterior pituitary placed in Hanks' Balanced Salt Solution (HBSS: without calcium chloride, w/o magnesium chloride, w/o magnesium sulfate; Gibco) containing 20 mM HEPES (Gibco) and 100 U/ml penicillin streptomycin (PS: JRH Biosciences). Under sterile conditions, pituitaries were rinsed twice then minced into small fragments with a razor blade. Fragments were resuspended in 5 ml of HBSS/HEPES containing 20 mg collagenase (Serva 17449) and […] of 1 mg/ml DNase (Sigma) for a 40 min. incubation in a 37° C. gyrotory water bath shaker (New Brunswick Scientific Model G76; setting 10). After the incubation, fragments were triturated to yield small clumps and single cells. The cells were centrifuged 1000× g for 5 min, resuspended, counted and plated at a final cell concentration of 100,000 cells/ml. Incubation media was DME low glucose media w/NaHCO3 (Gibco) containing 20 mM hepes, 100 U/ml PS and 10% FBS (Hyclone A-111-L). Cells were plated at 0.5 ml per well in 48 well plates (Falcon) and incubated at 37° C. in 5% C02 for three days. For challenges to determine release of other pituitary hormones cells were plated at 200,000 cells per ml with 2 ml per well of a Swell plate (Corning). Challenge: A (inip)bbFK-NH2 stock (or other GHRP) concentration of 1 mM was made in DMSO and diluted with warmed media approximately 30 min prior to use. The highest concentration of DMSO in media was 0.1%. […] STATISTICS: The mean for each group was determined and analyzed by one-way analysis of variance with a post-hoc Student-Newman-Keuls. […] The EC50 was calculated using a 4-parameter curve-fit program (Kaleidagraph). […] RIA of pituitary hormones: LH, FSH, TSH, and Prolactin were determined with commercially available kits from Amersham, and ACTH levels were determined by a RIA kit from ICN. […]

NCCCC[C@H](NC(=O)[C@H](Cc1ccccc1)NC(=O)[C@@H](Cc1ccc2ccccc2c1)NC(=O)[C@@H](Cc1ccc2ccccc2c1)NC(=O)C1CCNCC1)C(N)=O [(inip) b b F K amide, (inip)-DβNal-DβNal-Phe-Lys-amide]
ACTH release (listed as (inip)-bbFK-NH2): unchanged | ACTH release (listed as (inip)bbFK-NH2): no significant change
